Data as given in the supplement of paper PMC10307832.

How the values were obtained:
Assay in all cases: relative viability (nuclei count vs DMSO), 5 days (fraction); higher = more cells survive
201T = system: 201T
In short: (§1)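 Relative viability is defined as nuclei in treated wells over nuclei in vehicle wells. Duplicate plates were run and medians reported. Lung cancer cell lines in 1536-well plates were dosed by pin tool one day after seeding, with one drug or with a fixed anchor-drug dose plus five library-drug doses (not always all listed) in √10 steps, and nuclei were counted after 5 days.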

COR-L 105 = system: COR-L 105
In short: as §1

ChaGo-K-1 = system: ChaGo-K-1
In short: as §1

EKVX = system: EKVX
In short: as §1

H3255 = system: H3255
In short: as §1

HARA = system: HARA
In short: as §1

HCC-827 = system: HCC-827
In short: as §1

HOP-62 = system: HOP-62
In short: as §1

LCLC-103H = system: LCLC-103H
In short: as §1

LOU-NH91 = system: LOU-NH91
In short: as §1

NCI-H1975 = system: NCI-H1975
In short: as §1

NCI-H2126 = system: NCI-H2126
In short: as §1

NCI-H2228 = system: NCI-H2228
In short: as §1

NCI-H23 = system: NCI-H23
In short: as §1

NCI-H2405 = system: NCI-H2405
In short: as §1

NCI-H3122 = system: NCI-H3122
In short: as §1

NCI-H596 = system: NCI-H596
In short: as §1

NCI-H650 = system: NCI-H650
In short: as §1

NCI-H661 = system: NCI-H661
In short: as §1

PC-3 [JPC-3] = system: PC-3 [JPC-3]
In short: as §1

SK-LU-1 = system: SK-LU-1
In short: as §1

SW 900 = system: SW 900
In short: as §1

Compound: Cc1csc(=NC2CCCCC2)n1/N=C/c1ccc(O)c(O)c1O [MIM1] + Nc1nc2[nH]cc(CCc3ccc(C(=O)N[C@@H](CCC(=O)O)C(=O)O)cc3)c2c(=O)[nH]1 [Pemetrexed] (partner 0.2 µM)
- relative viability (201T; first compound 0.2 µM): 0.372
- relative viability (201T; first compound 0.6325 µM): 0.338
- relative viability (201T; first compound 2 µM): 0.38
- relative viability (201T; first compound 6.325 µM): 0.31
- relative viability (201T; first compound 20 µM): 0.318
- relative viability (COR-L 105; first compound 0.2 µM): 1.02
- relative viability (COR-L 105; first compound 0.6325 µM): 1.13
- relative viability (COR-L 105; first compound 2 µM): 0.882
- relative viability (COR-L 105; first compound 6.325 µM): 0.933
- relative viability (COR-L 105; first compound 20 µM): 1.04
- relative viability (ChaGo-K-1; first compound 0.2 µM): 0.255
- relative viability (ChaGo-K-1; first compound 0.6325 µM): 0.269
- relative viability (ChaGo-K-1; first compound 2 µM): 0.263
- relative viability (ChaGo-K-1; first compound 6.325 µM): 0.257
- relative viability (ChaGo-K-1; first compound 20 µM): 0.189
- relative viability (EKVX; first compound 0.2 µM): 0.374
- relative viability (EKVX; first compound 0.6325 µM): 0.392
- relative viability (EKVX; first compound 2 µM): 0.318
- relative viability (EKVX; first compound 6.325 µM): 0.287
- relative viability (EKVX; first compound 20 µM): 0.29
- relative viability (H3255; first compound 0.2 µM): 0.539
- relative viability (H3255; first compound 0.6325 µM): 0.553
- relative viability (H3255; first compound 2 µM): 0.532
- relative viability (H3255; first compound 6.325 µM): 0.556
- relative viability (H3255; first compound 20 µM): 0.312
- relative viability (HARA; first compound 0.2 µM): 0.22
- relative viability (HARA; first compound 0.6325 µM): 0.261
- relative viability (HARA; first compound 2 µM): 0.237
- relative viability (HARA; first compound 6.325 µM): 0.234
- relative viability (HARA; first compound 20 µM): 0.149
- relative viability (HCC-827; first compound 0.2 µM): 0.275
- relative viability (HCC-827; first compound 0.6325 µM): 0.249
- relative viability (HCC-827; first compound 2 µM): 0.263
- relative viability (HCC-827; first compound 6.325 µM): 0.246
- relative viability (HCC-827; first compound 20 µM): 0.167
- relative viability (HOP-62; first compound 0.2 µM): 0.362
- relative viability (HOP-62; first compound 0.6325 µM): 0.34
- relative viability (HOP-62; first compound 2 µM): 0.385
- relative viability (HOP-62; first compound 6.325 µM): 0.328
- relative viability (HOP-62; first compound 20 µM): 0.127
- relative viability (LCLC-103H; first compound 0.2 µM): 0.413
- relative viability (LCLC-103H; first compound 0.6325 µM): 0.499
- relative viability (LCLC-103H; first compound 2 µM): 0.456
- relative viability (LCLC-103H; first compound 6.325 µM): 0.466
- relative viability (LCLC-103H; first compound 20 µM): 0.393
- relative viability (LOU-NH91; first compound 0.2 µM): 0.335
- relative viability (LOU-NH91; first compound 0.6325 µM): 0.466
- relative viability (LOU-NH91; first compound 2 µM): 0.383
- relative viability (LOU-NH91; first compound 6.325 µM): 0.403
- relative viability (LOU-NH91; first compound 20 µM): 0.285
- relative viability (NCI-H1975; first compound 0.2 µM): 0.289
- relative viability (NCI-H1975; first compound 0.6325 µM): 0.317
- relative viability (NCI-H1975; first compound 2 µM): 0.28
- relative viability (NCI-H1975; first compound 6.325 µM): 0.223
- relative viability (NCI-H1975; first compound 20 µM): 0.187
- relative viability (NCI-H2126; first compound 0.2 µM): 0.643
- relative viability (NCI-H2126; first compound 0.6325 µM): 0.67
- relative viability (NCI-H2126; first compound 2 µM): 0.675
- relative viability (NCI-H2126; first compound 6.325 µM): 0.563
- relative viability (NCI-H2126; first compound 20 µM): 0.399
- relative viability (NCI-H2228; first compound 0.2 µM): 0.386
- relative viability (NCI-H2228; first compound 0.6325 µM): 0.345
- relative viability (NCI-H2228; first compound 2 µM): 0.347
- relative viability (NCI-H2228; first compound 6.325 µM): 0.168
- relative viability (NCI-H2228; first compound 20 µM): 0.152
- relative viability (NCI-H23; first compound 0.2 µM): 0.667
- relative viability (NCI-H23; first compound 0.6325 µM): 0.469
- relative viability (NCI-H23; first compound 2 µM): 0.717
- relative viability (NCI-H23; first compound 6.325 µM): 0.5
- relative viability (NCI-H23; first compound 20 µM): 0.204
- relative viability (NCI-H2405; first compound 0.2 µM): 0.945
- relative viability (NCI-H2405; first compound 0.6325 µM): 0.98
- relative viability (NCI-H2405; first compound 2 µM): 1.17
- relative viability (NCI-H2405; first compound 6.325 µM): 0.752
- relative viability (NCI-H2405; first compound 20 µM): 0.584
- relative viability (NCI-H3122; first compound 0.2 µM): 0.195
- relative viability (NCI-H3122; first compound 0.6325 µM): 0.194
- relative viability (NCI-H3122; first compound 2 µM): 0.219
- relative viability (NCI-H3122; first compound 6.325 µM): 0.148
- relative viability (NCI-H3122; first compound 20 µM): 0.245
- relative viability (NCI-H596; first compound 0.2 µM): 0.608
- relative viability (NCI-H596; first compound 0.6325 µM): 0.537
- relative viability (NCI-H596; first compound 2 µM): 0.536
- relative viability (NCI-H596; first compound 6.325 µM): 0.512
- relative viability (NCI-H596; first compound 20 µM): 0.471
- relative viability (NCI-H650; first compound 0.2 µM): 1.07
- relative viability (NCI-H650; first compound 0.6325 µM): 1
- relative viability (NCI-H650; first compound 2 µM): 0.934
- relative viability (NCI-H650; first compound 6.325 µM): 0.89
- relative viability (NCI-H650; first compound 20 µM): 0.282
- relative viability (NCI-H661; first compound 0.2 µM): 0.676
- relative viability (NCI-H661; first compound 0.6325 µM): 0.908
- relative viability (NCI-H661; first compound 2 µM): 0.975
- relative viability (NCI-H661; first compound 6.325 µM): 0.651
- relative viability (NCI-H661; first compound 20 µM): 0.562
- relative viability (PC-3 [JPC-3]; first compound 0.2 µM): 1.18
- relative viability (PC-3 [JPC-3]; first compound 0.6325 µM): 1.04
- relative viability (PC-3 [JPC-3]; first compound 2 µM): 1.14
- relative viability (PC-3 [JPC-3]; first compound 6.325 µM): 0.948
- relative viability (PC-3 [JPC-3]; first compound 20 µM): 0.485
- relative viability (SK-LU-1; first compound 0.2 µM): 0.995
- relative viability (SK-LU-1; first compound 0.6325 µM): 1.09
- relative viability (SK-LU-1; first compound 2 µM): 0.972
- relative viability (SK-LU-1; first compound 6.325 µM): 0.892
- relative viability (SK-LU-1; first compound 20 µM): 0.694
- relative viability (SW 900; first compound 0.2 µM): 0.504
- relative viability (SW 900; first compound 0.6325 µM): 0.465
- relative viability (SW 900; first compound 2 µM): 0.499
- relative viability (SW 900; first compound 6.325 µM): 0.349
- relative viability (SW 900; first compound 20 µM): 0.178
